Measurements from patent US20230082989A1, “DEVICES AND METHODS FOR TREATING CANCER AND CARDIAC WASTING” (Nazzano Devices Limited, priority 2020, published 2023).
Like-named read-outs stand apart in the source and are kept apart here. Where no end group is shown, it is not given here.

Key:
advanced cancer patients [1] = experiment: Echocardiogram (LVEF, LV mass) in advanced cancer patients receiving heart failure drugs, case series; format: in vivo, human
Description: (§1) In some cases, SGLT2 inhibitors, Dapagliflozin or Empagliflozin can be used for treatment of type 2 diabetes, heart failure, or a combination thereof. Disclosed herein are methods comprising administering these drugs to advanced cancer patients to improve a heart muscle in these patients. We here describe 5 advanced cancer patients, who were treated with either an SGLT2 inhibitor, an ACE inhibitor, a beta-blocker or an Angiotensin receptor blocker, all of which are shown to be effective heart failure therapies.

advanced cancer patients [2] = experiment: 24 h ECG recording (mean heart rate, SDNN, NSVT) in advanced cancer patients receiving heart failure drugs, case series; format: in vivo, human
Description: as §1

advanced cancer patients [3] = experiment: Self-rated health / EQ5D5L index in advanced cancer patients receiving heart failure drugs, case series; format: in vivo, human; settings: for Self-rated health: 1=very good, 5=very poor
Description: as §1

advanced cancer patients [4] = experiment: Hand grip strength, 4 meter walk and 6-minute walk test in advanced cancer patients receiving heart failure drugs, case series; format: in vivo, human
Description: as §1

advanced cancer patients [5] = experiment: Interpretation of case reports: protection from heart muscle wasting, NSVT and early death; format: in vivo, human
advanced cancer patients [6] = experiment: Survival follow-up of advanced cancer patients receiving heart failure drugs, case series; format: in vivo, human
[7] = test system: patients with advanced cancer; settings: cited from earlier work
[8] = Case 6: Colorectal Cancer UICC stage 4, Candesartan 16 mg and Dapagliflozin 10 mg with co-medication
[9] = Case 9: Lung Cancer UICC stage 4, Candesartan 32 mg and Metoprolol 95 mg with co-medication
[10] = Case 13: Lung cancer UICC stage 4B, Spironolactone 25 mg and Candesartan 32 mg with co-medication
[11] = Case 12: Multiple Myeloma stage 3, Spironolactone 25 mg, Candesartan 32 mg and Candesartan 8 mg listed, with co-medication
[12] = Case 7: lymphoma Ann Arbor Stage 2A, Empagliflozin 10 mg with co-medication
[13] = Case 8: Pancreas Cancer UICC stage 4, Nebivolol 7.5 mg with co-medication
[14] = Case A: pancreatic cancer metastasized to liver, Gemcitabine, pre-study vs post-study
[15] = Case B: gastrointestinal cancer metastasized to liver, Capecitabine
[16] = Case C: advanced mesothelioma, FOLFIRI
[17] = Case D: head & neck cancer metastasized to lungs, Cetuximab, pre-study vs post-study

For CCOc1nc2cccc(C(=O)O)c2n1Cc1ccc(-c2ccccc2-c2nnn[nH]2)cc1 [Candesartan], the “LV mass (echocardiogram)” value (advanced cancer patients [1]; [8]) was 247 gram, the “LVEF (echocardiogram)” value (advanced cancer patients [1]; [8]) was 68% and the “LV mass (echocardiogram)” value (advanced cancer patients [1]; [9]) was 326 gram. For the same compound, the “LVEF (echocardiogram)” value (advanced cancer patients [1]; [9]) was 67%, the “LV mass (echocardiogram)” value (advanced cancer patients [1]; [10]) was 148 gram and the “LVEF (echocardiogram)” value (advanced cancer patients [1]; [10]) was 66%. The “Heart rate variability SDNN (24 h ECG)” value (advanced cancer patients [2]; [8]) was 160 ms, the “Mean heart rate (24 h ECG)” value (advanced cancer patients [2]; [8]) was 70 beats per minute and the “Heart rate variability SDNN (24 h ECG)” value (advanced cancer patients [2]; [11]) was 112 ms. For the same compound, the “Mean heart rate (24 h ECG)” value (advanced cancer patients [2]; [11]) was 69 beats per minute, the “Heart rate variability SDNN (24 h ECG)” value (advanced cancer patients [2]; [10]) was 101 ms and the Self-rated health (advanced cancer patients [3]; [8]) was 4. The Self-rated health (advanced cancer patients [3]; [9]) was 2, the “Symptom status, EQ5D5L Index” value (advanced cancer patients [3]; Case 12: Multiple Myeloma stage 3, Spironolactone 25 mg, Candesartan 32 mg and Candesartan 8 mg listed, with co-medication, 1 best possible, 0 worst possible) was 0.887 and the “Distance in 6-minute walk test” value (advanced cancer patients [4]; [8]) was 504 meters. The Hand grip strength (advanced cancer patients [4]; [8]) was 46 kg, the “Distance walked in 6 minutes” value (advanced cancer patients [4]; [9]) was 440 meters and the “Hand grip muscle strength” value (advanced cancer patients [4]; [9]) was 43 kg. For the same compound, the “Distance walked in 6 minutes” value (advanced cancer patients [4]; [11]) was 527 meters, the “Hand grip muscle strength” value (advanced cancer patients [4]; [11]) was 47 kg and the “Time to walk 4 meters” value (advanced cancer patients [4]; [11]) was 2.5 s. For the same compound, the “Hand grip muscle strength” value (advanced cancer patients [4]; [10]) was 40 kg.
In the case of CCOc1ccc(Cc2cc([C@@H]3O[C@H](CO)[C@@H](O)[C@H](O)[C@H]3O)ccc2Cl)cc1 [Dapagliflozin], the “LV mass (echocardiogram)” value (advanced cancer patients [1]; [8]) is reported as 247 gram, the “LVEF (echocardiogram)” value (advanced cancer patients [1]; [8]) is reported as 68% and the “Heart rate variability SDNN (24 h ECG)” value (advanced cancer patients [2]; [8]) is reported as 160 ms. The “Mean heart rate (24 h ECG)” value (advanced cancer patients [2]; [8]) was 70 beats per minute, the Self-rated health (advanced cancer patients [3]; [8]) was 4 and the “Distance in 6-minute walk test” value (advanced cancer patients [4]; [8]) was 504 meters. The Hand grip strength (advanced cancer patients [4]; [8]) was 46 kg.
With OC[C@H]1O[C@@H](c2ccc(Cl)c(Cc3ccc(O[C@H]4CCOC4)cc3)c2)[C@H](O)[C@@H](O)[C@@H]1O [Empagliflozin] the “Interpretation of the case” value (advanced cancer patients [5]; [12]) was “protected from heart muscle wasting, life-threatening non-sustained ventricular tachycardia and early death”, the “LV mass (echocardiogram)” value (advanced cancer patients [1]; [12]) was 365 gram and the “LVEF (echocardiogram)” value (advanced cancer patients [1]; [12]) was 64%. For the same compound, the “Survival (still alive after)” value (advanced cancer patients [6]; [12]) was over 324 days, the “Heart rate variability SDNN (24 h ECG)” value (advanced cancer patients [2]; [12]) was 224 ms and the “Mean heart rate (24 h ECG)” value (advanced cancer patients [2]; [12]) was 84 beats per minute. The “Non-sustained ventricular tachycardia (24 h ECG)” value (advanced cancer patients [2]; [12]) was “no non-sustained ventricular tachycardia”, the Self-rated health (advanced cancer patients [3]; [12]) was 2 and the Hand grip strength (advanced cancer patients [4]; [12]) was 46. For the same compound, the “Time to walk 4 meters” value (advanced cancer patients [4]; [12]) was 3.5 s.
With COCCc1ccc(OCC(O)CNC(C)C)cc1 (centres unmarked) [Metoprolol] the “Interpretation of the case” value (advanced cancer patients [5]; [9]) was “protected from heart muscle wasting, life-threatening non-sustained ventricular tachycardia and early death”, the “LV mass (echocardiogram)” value (advanced cancer patients [1]; [9]) was 326 gram and the “LVEF (echocardiogram)” value (advanced cancer patients [1]; [9]) was 67%. The “Non-sustained ventricular tachycardia (24 h ECG)” value (advanced cancer patients [2]; [9]) was “no non-sustained ventricular tachycardia”, the Self-rated health (advanced cancer patients [3]; [9]) was 2 and the “Distance walked in 6 minutes” value (advanced cancer patients [4]; [9]) was 440 meters. The “Hand grip muscle strength” value (advanced cancer patients [4]; [9]) was 43 kg.
In the case of OC(CNCC(O)C1CCc2cc(F)ccc2O1)C1CCc2cc(F)ccc2O1 (centres unmarked) [Nebivolol], the “Interpretation of the case” value (advanced cancer patients [5]; [13]) is reported as “protected from heart muscle wasting, life-threatening non-sustained ventricular tachycardia and early death”, the “LV mass (echocardiogram)” value (advanced cancer patients [1]; [13]) is reported as 236 gram and the “LVEF (echocardiogram)” value (advanced cancer patients [1]; [13]) is reported as 65%. The “Survival (still alive after)” value (advanced cancer patients [6]; [13]) was over 337 days, the “Heart rate variability SDNN (24 h ECG)” value (advanced cancer patients [2]; [13]) was 124 ms and the “Mean heart rate (24 h ECG)” value (advanced cancer patients [2]; [13]) was 62 beats per minute. The “Non-sustained ventricular tachycardia (24 h ECG)” value (advanced cancer patients [2]; [13]) was “no non-sustained ventricular tachycardia”, the Self-rated health (advanced cancer patients [3]; [13]) was 3 and the “Hand grip muscle strength” value (advanced cancer patients [4]; [13]) was 27 kg. The “Time to walk 4 meters” value (advanced cancer patients [4]; [13]) was 4.6 s.
In the case of “Ghrelin (GSSFLSPEHQRVQQRKESKKPPAKLQPR; ends and bridges not checked; UniProt Q9UBU3 24-51, looked up) [a gut-derived 28-amino acid peptide hormone]”, the “Change in muscle mass” value [7, 14] is listed as “no change”, the “Increase in muscle strength” value [7, 14] is listed as 2% and the Increase in steps/day [7, 14] is listed as 40%. The Adverse event [7, 15] was “hospitalized for atrial fibrillation, which was an AE deemed unrelated to ghrelin”, the “Patient comment about using ghrelin” value [7, 15] was “Feel more active” and the Adverse event [7, 16] was “increase in tumor pain, an AE deemed unrelated to ghrelin”. For the same compound, the “Patient opinion about using ghrelin” value [7, 16] was “This is the first therapy which improves my well-being”, the Survival [7, 16] was 62 days and the “Decrease in muscle mass” value ([7]; Case C: advanced mesothelioma, FOLFIRI, pre-study vs post-study) was 3%. For the same compound, the “Change in muscle mass” value [7, 17] was “no change”, the “Increase in muscle strength” value [7, 17] was 6% and the Increase in steps/day [7, 17] was 63%.
